Experimental data taken from US20240279298A1 (BEIJING TUO JIE BIOPHARMACEUTICAL CO. LTD., priority 2021, published 2024).
Converted amounts (≈) assume the structure as drawn. Where a SMILES comes first, the peptide text is derived from it. [ ]: non-standard residue; d: D form. Aib = CC(C)(N)C(=O)O

Key:
[1] = Chemical stability in phosphate buffer (UPLC purity); format: physicochemical; conditions: phosphate buffer pH 7.4, 1 mg/mL; for Purity Day 0: day 0 (normalization)
Procedure: The compound purity was calculated by the percentage area of the main peak in the chromatograms relative to the total area of all integrated peaks, normalized by the purity of the sample on day 0 for the purity.

[2] = target: T1, human GLP-1R (Homo sapiens, UniProt P43220); experiment: Agonist activity assay for GLP-1R (cAMP HTRF); format: cell-based
T1 construct: expressed in transfected cells
T1 sequence (P43220 24-463): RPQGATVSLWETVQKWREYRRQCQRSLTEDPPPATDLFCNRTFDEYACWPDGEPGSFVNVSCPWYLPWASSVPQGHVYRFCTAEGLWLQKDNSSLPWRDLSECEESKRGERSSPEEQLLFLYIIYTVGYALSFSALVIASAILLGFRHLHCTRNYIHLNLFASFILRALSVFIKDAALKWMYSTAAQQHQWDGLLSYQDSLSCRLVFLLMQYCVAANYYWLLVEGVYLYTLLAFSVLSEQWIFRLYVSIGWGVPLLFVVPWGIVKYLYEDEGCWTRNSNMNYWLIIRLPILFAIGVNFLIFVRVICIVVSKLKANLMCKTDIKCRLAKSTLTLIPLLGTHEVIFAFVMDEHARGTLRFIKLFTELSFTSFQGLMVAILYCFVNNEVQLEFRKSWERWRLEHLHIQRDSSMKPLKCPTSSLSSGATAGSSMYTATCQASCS
Procedure: (§1) The activation of GCGR by related compounds will stimulate the formation of cyclic adenosine monophosphate (cAMP) in cells. Thus, the receptor activity can be monitored by cAMP production in proper cells expressing the receptor.
(§2) Agonist activity assay for GCGR: Cryopreserved stable CHO-K1/GCGR/CRE-Luc cells were taken from a liquid nitrogen tank, thawed in a 37° C. water bath, resuspended in DMEM/F12 medium (Sigma Cat #D8437), centrifuged, and seeded into T75 culture flasks. The cells were passaged at least once for subsequent tests. Before testing, the cells were trypsinized, centrifuged, washed once, and resuspended in serum-free DMEM/F12 medium. The cell density was adjusted, and the cells were plated in a 96-well plate at a density of 2,500 cells/5 μL/well. A 1×buffer solution in Cisbio-cAMP-Gs Dynamic kit was prepared, and IBMX was added at a final concentration of 0.5 mM. 5 μL of polypeptide serially diluted by buffer was added into each well, and the plate was shaken gently for mixing and incubated for 30 minutes at 37° C. cAMP-d2 and Anti-cAMP-Eu^3+-Cryptate were 20-fold diluted with cAMP Lysis and detection buffer respectively and mixed well. 5 μL of diluted cAMP-d2 solution and 5 μL of diluted Anti-cAMP-Eu^3+-Cryptate solution were sequentially added into each well. The mixture was mixed well by moderate vibration, and incubated for 1 hour at room temperature away from light.
Agonist activity assay for GLP-1R: The method differed from the method described above for the agonist activity assay for GCGR in that a stable CHO-GLP-1R cell line was used.

[3] = target: T2, human GIPR (Homo sapiens, UniProt P48546); experiment: Agonist activity assay for GIPR (cAMP HTRF); format: cell-based; conditions: for EC50: CHO-K1/GIPR cell line, cAMP
T2 construct: expressed in transfected cells
T2 sequence (P48546 22-466): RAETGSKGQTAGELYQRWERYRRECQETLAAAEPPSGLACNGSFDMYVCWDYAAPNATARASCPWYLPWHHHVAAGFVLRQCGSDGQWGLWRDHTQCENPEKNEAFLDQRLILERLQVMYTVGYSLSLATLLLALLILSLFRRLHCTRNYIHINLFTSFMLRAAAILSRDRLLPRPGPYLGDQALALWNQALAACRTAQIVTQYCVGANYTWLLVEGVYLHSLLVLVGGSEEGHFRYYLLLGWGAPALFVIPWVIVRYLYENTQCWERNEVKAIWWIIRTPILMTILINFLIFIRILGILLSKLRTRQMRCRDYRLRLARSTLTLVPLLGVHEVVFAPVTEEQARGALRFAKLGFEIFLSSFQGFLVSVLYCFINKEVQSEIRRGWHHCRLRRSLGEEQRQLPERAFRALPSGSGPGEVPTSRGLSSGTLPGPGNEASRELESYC
Procedure: as §1, §2
Agonist activity assay for GIPR: The method differed from the method described above for the agonist activity assay for GCGR in that a stable CHO-K1/GIPR cell line was used, and the cell density was 3,000 cells/5 μL/well.

[4] = Maximum solubility in phosphate buffer pH 7.4; format: physicochemical; conditions: phosphate buffer pH 7.4, room temperature
[5] = target: T3, human glucagon receptor (GCGR) (Homo sapiens, UniProt P47871); experiment: Agonist activity assay for GCGR (cAMP HTRF); format: cell-based; conditions: normalized by the activity of the native glucagon
T3 construct: expressed in transfected cells
T3 sequence (P47871 26-477): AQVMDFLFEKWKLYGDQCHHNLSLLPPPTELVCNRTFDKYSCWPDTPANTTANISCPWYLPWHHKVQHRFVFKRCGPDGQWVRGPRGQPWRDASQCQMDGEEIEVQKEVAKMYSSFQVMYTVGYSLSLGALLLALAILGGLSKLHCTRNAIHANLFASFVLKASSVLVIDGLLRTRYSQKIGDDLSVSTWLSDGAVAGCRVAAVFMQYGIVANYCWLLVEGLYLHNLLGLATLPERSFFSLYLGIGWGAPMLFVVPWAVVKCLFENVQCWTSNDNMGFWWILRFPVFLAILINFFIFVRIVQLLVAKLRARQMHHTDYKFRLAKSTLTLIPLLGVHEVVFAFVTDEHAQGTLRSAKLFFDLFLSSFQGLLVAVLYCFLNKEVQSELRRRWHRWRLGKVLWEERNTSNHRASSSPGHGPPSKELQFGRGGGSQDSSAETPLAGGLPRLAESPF
Procedure: The activation of GCGR by related compounds will stimulate the formation of cyclic adenosine monophosphate (cAMP) in cells. Thus, the receptor activity can be monitored by cAMP production in proper cells expressing the receptor. […] The cells were passaged at least once for subsequent tests. Before testing, the cells were trypsinized, centrifuged, washed once, and resuspended in serum-free DMEM/F12 medium. The cell density was adjusted, and the cells were plated in a 96-well plate at a density of 2,500 cells/5 μL/well. […] The mixture was mixed well by moderate vibration, and incubated for 1 hour at room temperature away from light.

[6] = target: human glucose-dependent insulinotropic polypeptide receptor (GIPR) (human) (UniProt P48546); experiment: cell-based or functional assay

Purity Day 7 ([1]; 4° C.) [%]	Purity Day 14 ([1]; 4° C.) [%]	Purity Day 21 ([1]; 4° C.) [%]	Purity Day 28 ([1]; 4° C.) [%]	Purity Day 7 ([1]; 25° C.) [%]	Purity Day 14 ([1]; 25° C.) [%]	Purity Day 21 ([1]; 25° C.) [%]	Purity Day 28 ([1]; 25° C.) [%]	Purity Day 0 [1] [%]	GLP-1R % Activity relative to native GLP-1 [2] [%]	EC50 [3] [nM]	GIPR % Activity relative to native GIP [3] [%]	solubility at 5 min [4] [µg/mL]	Relative activity [5] [%]	GIPR % Activity relative to native GIP, cAMP HTRF [6] [%]	GIPR EC50 (nM), cAMP HTRF in CHO-K1/GIPR cells [6] [nM]	Molecule
98.77	93.35	89.45	89.12	82.25	68.13	49.04	33.47	100.00	0.231	> 100	<0.0700	2560 (≈ 751 µM)	333			CC(C)C[C@H](NC(=O)[C@H](Cc1c[nH]c2ccccc12)NC(=O)[C@H](CCC(N)=O)NC(=O)[C@@H](NC(=O)[C@H](Cc1ccccc1)NC(=O)[C@H](CCC(=O)O)NC(=O)[C@H](CCC(N)=O)NC(=O)[C@H](C)NC(=O)[C@H](CCCNC(=N)N)NC(=O)C(C)(C)NC(=O)[C@@H](NC(=O)[C@H](CC(=O)O)NC(=O)[C@H](CC(C)C)NC(=O)[C@H](Cc1ccc(O)cc1)NC(=O)[C@H](CCCCN)NC(=O)[C@H](CO)NC(=O)[C@H](Cc1ccc(O)cc1)NC(=O)[C@H](CC(=O)O)NC(=O)[C@H](CO)NC(=O)[C@@H](NC(=O)[C@H](Cc1ccccc1)NC(=O)[C@@H](NC(=O)CNC(=O)[C@H](CCC(N)=O)NC(=O)[C@H](CO)NC(=O)[C@@H](N)Cc1c[nH]cn1)[C@@H](C)O)[C@@H](C)O)C(C)C)C(C)C)C(=O)N[C@@H](CCC(=O)O)C(=O)N[C@@H](CO)C(=O)N[C@H](C(=O)O)[C@@H](C)O [Compound 41] (H-HSQGTFTSDYSKYLDV[Aib]RAQEFVQWLEST-OH)
									0.291	> 100	<0.0700	> 2490	207			CC[C@H](C)[C@H](NC(=O)[C@H](CC(=O)O)NC(=O)[C@H](CC(C)C)NC(=O)[C@H](Cc1ccc(O)cc1)NC(=O)[C@H](CCCCN)NC(=O)[C@H](CO)NC(=O)[C@H](Cc1ccc(O)cc1)NC(=O)[C@H](CC(=O)O)NC(=O)[C@H](CO)NC(=O)[C@@H](NC(=O)[C@H](Cc1ccccc1)NC(=O)[C@@H](NC(=O)CNC(=O)[C@H](CCC(N)=O)NC(=O)[C@H](CO)NC(=O)[C@@H](N)Cc1c[nH]cn1)[C@@H](C)O)[C@@H](C)O)C(=O)NC(C)(C)C(=O)N[C@@H](CCCNC(=N)N)C(=O)N[C@@H](C)C(=O)N[C@@H](CCC(N)=O)C(=O)N[C@@H](CCC(=O)O)C(=O)N[C@@H](Cc1ccccc1)C(=O)N[C@H](C(=O)N[C@@H](CCC(N)=O)C(=O)N[C@@H](Cc1c[nH]c2ccccc12)C(=O)N[C@@H](CC(C)C)C(=O)N[C@@H](CCC(=O)O)C(=O)N[C@@H](CO)C(=O)N[C@H](C(=O)O)[C@@H](C)O)C(C)C [Compound 42] (H-HSQGTFTSDYSKYLDI[Aib]RAQEFVQWLEST-OH)
														100	0.0652	human GIP (1-42) (from UniProt P09681 52-93) (ligand)
97.24	97.45	95.71	94.88	94.64	93.86	91.35	91.85	100.00	0.212	> 100	<0.0700	> 4790	268			CC(C)C[C@H](NC(=O)[C@H](Cc1c[nH]c2ccccc12)NC(=O)[C@H](CCC(N)=O)NC(=O)[C@@H](NC(=O)[C@H](Cc1ccccc1)NC(=O)[C@H](CCC(=O)O)NC(=O)[C@H](CCC(N)=O)NC(=O)[C@H](C)NC(=O)[C@H](CCCNC(=N)N)NC(=O)C(C)(C)NC(=O)[C@@H](NC(=O)[C@H](CC(=O)O)NC(=O)[C@H](CC(C)C)NC(=O)[C@H](Cc1ccc(O)cc1)NC(=O)[C@H](CCCCN)NC(=O)[C@H](CO)NC(=O)[C@H](Cc1ccc(O)cc1)NC(=O)[C@H](CC(=O)O)NC(=O)[C@H](CO)NC(=O)[C@@H](NC(=O)[C@H](Cc1ccccc1)NC(=O)[C@@H](NC(=O)CNC(=O)[C@H](CCC(N)=O)NC(=O)[C@H](CO)NC(=O)[C@@H](N)Cc1c[nH]cn1)[C@@H](C)O)[C@@H](C)O)[C@@H](C)O)C(C)C)C(=O)N[C@@H](CCC(=O)O)C(=O)N[C@@H](CO)C(=O)N[C@H](C(=O)O)[C@@H](C)O [Compound 39] (H-HSQGTFTSDYSKYLDT[Aib]RAQEFVQWLEST-OH)
